From patent US8039481B2, “Tetrahydrofuran derivatives for use as inhibitors of matrix metalloproteinases” (Sanofi-Aventis, priority 2005, dated 2011)

Assays:
Format in all cases: biochemical
[1] = molecular target: T1, catalytic domain of human collagenase-1 (MMP-1) (Homo sapiens, UniProt P03956); assay: Enzymatic activity of the catalytic domain of human collagenase-1 (MMP-1), fluorogenic substrate
T1 construct: Determination of the Enzymatic Activity of the Catalytic Domain of Human Collagenase-1 (MMP-1); purchased Biocol, Potsdam MMP1
T1 sequence (P03956 100-269 limits assumed): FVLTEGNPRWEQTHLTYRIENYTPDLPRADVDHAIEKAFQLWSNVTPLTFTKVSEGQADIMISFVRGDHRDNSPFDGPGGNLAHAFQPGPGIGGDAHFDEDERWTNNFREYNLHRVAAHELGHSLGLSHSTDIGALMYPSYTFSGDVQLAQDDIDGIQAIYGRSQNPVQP
Method: Determination of the Enzymatic Activity of the Catalytic Domain of Human Collagenase-1 (MMP-1)
Activation of the proenzyme: 2 parts by volume of proenzyme are incubated with 1 part by volume of APMA solution at 37° C. for 1 hour. The APMA solution is prepared from a 10 mmol/l p-aminophenylmercuric acetate solution in 0.1 mmol/l NaOH by dilution with 3 parts by volume of tris/HCl buffer pH7.5 (see below). The pH is adjusted to between 7.0 and 7.5 by adding 1 mmol/l HCl. After activation of the enzyme, it is diluted with the tris/HCl buffer to a concentration of 2.5 μg/ml.
(§1) The enzymic activity is measured by incubating 10 μl of enzyme solution with 10 μl of a 3% strength (v/v) buffered dimethyl sulfoxide solution (reaction 1) for 15 minutes. The enzyme inhibitor activity is measured by incubating 10 μl of enzyme solution with 10 μl of a 3% strength (v/v) buffered dimethyl sulfoxide solution which contains the enzyme inhibitor (reaction 2).
The enzymic reaction both in the case of reaction 1 and in the case of reaction 2 is followed after addition of 10 μl of a 3% strength (v/v) aqueous dimethyl sulfoxide solution which contains 0.3 mmol/l of the substrate by fluorescence spectroscopy (328 nm (extinction)/393 nm (emission)), and the enzymic activity is presented as increase in extinction per minute.
The effect of the inhibitor is calculated as percentage inhibition by the following formula: % inhibition=100−[(increase in extinction/minute in reaction 2)/(increase in extinction/minute in reaction 1)×100].
The IC50, i.e. the inhibitor concentration necessary for 50% inhibition of the enzymic activity, is determined graphically by plotting the percentage inhibitions at various inhibitor concentrations.
The buffer solution contains 0.05% Brij (Sigma, Deisenhofen, Germany) and 0.1 mol/l tris/HCl, 0.1 mol/l NaCl, 0.01 mol/l CaCl2 (pH=7.5). The enzyme solution contains 2.5 μg/ml of the enzyme domain.
The substrate solution contains 0.3 mmol/l of the fluorogenic substrate (7-methoxycoumarin-4-yl)acetyl-Pro-Leu-Gly-Leu-3-(2′,4′-dinitrophenyl)-L-2,3-diaminopropionyl-Ala-Arg-NH2 (Bachem, Heidelberg, Germany).

[2] = molecular target: catalytic domain of human gelatinase-A (MMP-2) (Homo sapiens, UniProt P08253); assay: Enzymatic activity of the catalytic domain of human gelatinase-A (MMP-2), fluorogenic substrate
Method: Determination of the Enzymatic Activity of the Catalytic Domain of Human Gelatinase-A (MMP-2)
(§2) Activation of the proenzyme: 2 parts by volume of proenzyme were incubated with 1 part by volume of APMA solution at 37° C. for 0.5 hours. The APMA solution was prepared from a 10 mmol/l p-aminophenylmercuric acetate solution in 0.1 mmol/l NaOH by dilution with 3 parts by volume of Tris/HCl buffer pH 7.5 (see below). The pH was adjusted to between 7.0 and 7.5 by adding 1 mmol/l HCl. After activation of the enzyme it was diluted with the Tris/HCl buffer to a concentration of 0.83 μg/ml.
as §1, with “was” for “is”, “contained” for “contains”
The enzymic reaction both in the case of reaction 1 and in the case of reaction 2 was followed after addition of 10 μl of a 3% strength (v/v) aqueous dimethyl sulfoxide solution which contained 0.3 mmol/l of the substrate by fluorescence spectroscopy (328 nm (extinction)/393 nm (emission)).
(§3) The enzymic activity has been presented as increase in extinction/minute. The effect of the inhibitor was calculated as percentage inhibition by the following formula: % inhibition=100−[(increase in extinction/minute in reaction 2)/(increase in extinction/minute in reaction 1)×100].
(§4) The IC50, which is the concentration of inhibitor which is necessary for 50% inhibition of the enzymic activity, was determined graphically by plotting the percentage inhibitions at various inhibitor concentrations.
(§5) The buffer solution contained 0.05% Brij (Sigma, Deisenhofen, Germany) and 0.1 mol/l Tris/HCl, 0.1 mol/l NaCl, 0.01 mol/l CaCl2 (pH=7.5). The enzyme solution contained 0.83 μg/ml of the enzyme domain. The substrate solution contained 0.3 mmol/l of the fluorogenic substrate (7-methoxycoumarin-4-yl)acetyl-Pro-Leu-Gly-Leu-3-(2′,4′-dinitrophenyl)-L-2,3-diaminopropionyl-Ala-Arg-NH2 (Bachem, Heidelberg, Germany).

[3] = molecular target: T2, catalytic domain of human collagenase-3 (MMP-13) (Homo sapiens, UniProt P45452); assay: Enzymatic activity of the catalytic domain of human collagenase-3 (MMP-13), fluorogenic substrate
T2 construct: Determination of the Enzymatic Activity of the Catalytic Domain of Human Collagenase-3 (MMP-13); purchased INVITEK, Berlin 30 100 803
Method: Determination of the Enzymatic Activity of the Catalytic Domain of Human Collagenase-3 (MMP-13)
as §2, with “1.5” for “0.5”, “1.67” for “0.83”
as §1, with “was” for “is”, “contained” for “contains”
The enzymic reaction both in the case of reaction 1 and in the case of reaction 2 was followed after addition of 10 μl of a 3% strength (v/v) aqueous dimethyl sulfoxide solution which contained 0.075 mmol/l of the substrate by fluorescence spectroscopy (328 nm (extinction)/393 nm (emission)).
as §3, §4
as §5, with “1.67” for “0.83”, “0.075” for “0.3”

Chain of catalytic domain of human gelatinase-A (MMP-2) (P08253 110-465 limits assumed): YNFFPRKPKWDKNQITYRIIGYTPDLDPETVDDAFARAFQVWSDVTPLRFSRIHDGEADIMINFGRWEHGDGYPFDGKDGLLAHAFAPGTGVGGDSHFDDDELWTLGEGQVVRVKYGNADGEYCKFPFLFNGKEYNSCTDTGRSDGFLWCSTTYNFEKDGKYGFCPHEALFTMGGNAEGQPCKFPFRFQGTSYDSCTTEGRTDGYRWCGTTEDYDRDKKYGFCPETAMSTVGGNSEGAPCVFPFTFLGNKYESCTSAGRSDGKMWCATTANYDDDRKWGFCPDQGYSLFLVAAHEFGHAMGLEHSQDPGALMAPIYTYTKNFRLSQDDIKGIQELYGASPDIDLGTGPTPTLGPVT

Row | SMILES | IC50 [1] [nM] | IC50 [2] [nM] | IC50 [3] [nM]
1 | O=C(O)C1C2CCOC2CCN1S(=O)(=O)c1ccc(-c2ccc(Cl)cc2)cc1 (stereo not drawn) [Example 6, 5-(4′-chlorobiphenyl-4-sulfonyl)octahydrofuro[3,2-c]pyridine-4-carboxylic acid] | > 10000 | 38 | 290
2 | O=C(NO)C1C2CCOC2CCN1S(=O)(=O)c1ccc(-c2ccc(Cl)cc2)cc1 (stereo not drawn) [Example 7, 5-(4′-chlorobiphenyl-4-sulfonyl)octahydrofuro[3,2-c]pyridine-4-(N-hydroxy)-carboxamide] | 29 | 1.7 | 1.8
3 | O=C(NO)[C@H]1[C@H]2CCO[C@H]2CCN1S(=O)(=O)c1ccc(-c2ccc(Cl)cc2)cc1 [Example 8] | 14 | 0.8 | 1
4 | O=C(O)C1C2CCOC2CCN1S(=O)(=O)c1ccc(Oc2ccc(F)cc2)cc1 (stereo not drawn) [Example 10, 5-[4-(4-fluorophenoxy)benzenesulfonyl]octahydrofuro[3,2-c]pyridine-4-carboxylic acid] | > 10000 | 440 | 520
5 | O=C(NO)C1C2CCOC2CCN1S(=O)(=O)c1ccc(Oc2ccc(F)cc2)cc1 (stereo not drawn) [Example 11, 5-[4-(4-fluorophenoxy)benzenesulfonyl]octahydrofuro[3,2-c]pyridine-4-(N-hydroxy)-carboxamide] | 39 | 2 | 2
6 | O=C(NO)[C@@H]1[C@@H]2CCO[C@@H]2CCN1S(=O)(=O)c1ccc(Oc2ccc(F)cc2)cc1 [Example 13] | 1400 | 47 | 63
7 | N#Cc1ccc(Oc2ccc(S(=O)(=O)N3CC[C@@H]4OCC[C@@H]4[C@@H]3C(=O)NO)cc2)cc1 [Example 21] | 59 | 1 | 1

Continued, values first:

Row | IC50 [1] [nM] | IC50 [2] [nM] | IC50 [3] [nM] | SMILES
8 | 4100 | 71 | 58 | O=C(NO)[C@@H]1[C@@H]2CCO[C@@H]2CCN1S(=O)(=O)c1ccc(-c2ccc(Cl)cc2)cc1 [Example 9]
9 | 10 | 0.8 | 0.7 | O=C(NO)[C@H]1[C@H]2CCO[C@H]2CCN1S(=O)(=O)c1ccc(Oc2ccc(F)cc2)cc1 [Example 12]
10 | 43 | 2 | 1 | O=C(NO)C1C2CCOC2CCN1S(=O)(=O)c1ccc(Oc2ccc(Cl)cc2)cc1 (stereo not drawn) [Example 18, 5-[4-(4-chlorophenoxy)benzenesulfonyl]octahydrofuro[3,2-c]pyridine-4-(N-hydroxy)-carboxamide]
11 | 640 | 1 | 1 | CS(=O)(=O)c1ccc(Oc2ccc(S(=O)(=O)N3CC[C@@H]4OCC[C@@H]4[C@@H]3C(=O)NO)cc2)cc1 [Example 23]
